Measurements taken from patent publication US20250101023A1, “HETEROARYL DERIVATIVE AND USES THEREOF” (IUCF-HYU (INDUSTRY-UNIVERSITY COOPERATION FOUNDATION …, priority 2022, published 2025).

Legend:
p70S6K/RPS6KB1 = p70S6K/RPS6KB1 (Homo sapiens (Human), UniProt P23443); assay: Kinome-wide profiling; type: biochemical; conditions: read-out: % Residual Activity (mean)
EPHB3 = EPHB3 (Homo sapiens (Human), UniProt P54753); assay: Kinome-wide profiling; type: biochemical; conditions: read-out: % Residual Activity (mean)
CDK5/p35 = CDK5/p35 (Homo sapiens (Human), UniProt Q00535); assay: Kinome-wide profiling; type: biochemical; conditions: read-out: % Residual Activity (mean)
CYP2C9 = CYP2C9 (Homo sapiens (Human), UniProt P11712); assay: CYP inhibitory activity; type: in vitro ADME; conditions: read-out: CYP % activity at 10 μM concentration 2C9
Experimental: (§1) 5 derivatives were evaluated for in vitro metabolic stability in liver microsomes from three different species (human, dog, mouse) and for inhibitory activity against 5 representative cytochrome P450 enzymes (CYPs)(Table 3). In terms of liver microsomal stability, the 2′-pyridyl group is more suitable than the α-methyl-4′-pyridyl group as the terminal aromatic group at position 6, and the aminopyrimidyl group is better than the aminopyridyl group as a substituent at position 2.

CYP2C19 = CYP2C19 (Homo sapiens (Human), UniProt P33261); assay: CYP inhibitory activity; type: in vitro ADME; conditions: read-out: CYP % activity at 10 μM concentration 2C19
Experimental: as §1

CYP2D6 = CYP2D6 (Homo sapiens (Human), UniProt P10635); assay: CYP inhibitory activity; type: in vitro ADME; conditions: read-out: CYP % activity at 10 μM concentration 2D6
Experimental: as §1

CYP3A4 = CYP3A4 (Homo sapiens (Human), UniProt P08684); assay: CYP inhibitory activity; type: in vitro ADME; conditions: read-out: CYP % activity at 10 μM concentration 3A4
Experimental: as §1

CK1g2 = CK1g2 (Homo sapiens (Human), UniProt P78368); assay: Kinome-wide profiling; type: biochemical; conditions: read-out: % Residual Activity (mean)
CLK1 = CLK1 (Homo sapiens (Human), UniProt P49759); assay: Kinome-wide profiling; type: biochemical; conditions: read-out: % Residual Activity (mean)
MST2/STK3 = MST2/STK3 (Homo sapiens (Human), UniProt Q13188); assay: Kinome-wide profiling; type: biochemical; conditions: read-out: % Residual Activity (mean)
SK-Br3 and HCC1954 cells = assay: Combined treatment with trastuzumab; type: cell-based; conditions: 40 nM Example 53 with trastuzumab titration, 72 hours
Source text: The effect of combined administration was investigated in SK-Br3 and HCC1954 cells.

DYRK4 = DYRK4 (Homo sapiens (Human), UniProt Q9NR20); assay: Kinome-wide profiling; type: biochemical; conditions: read-out: % Residual Activity (mean)
NLK = NLK (Homo sapiens (Human), UniProt Q9UBE8); assay: Kinome-wide profiling; type: biochemical; conditions: read-out: % Residual Activity (mean)
NLK, sequence (Q9UBE8 whole entry): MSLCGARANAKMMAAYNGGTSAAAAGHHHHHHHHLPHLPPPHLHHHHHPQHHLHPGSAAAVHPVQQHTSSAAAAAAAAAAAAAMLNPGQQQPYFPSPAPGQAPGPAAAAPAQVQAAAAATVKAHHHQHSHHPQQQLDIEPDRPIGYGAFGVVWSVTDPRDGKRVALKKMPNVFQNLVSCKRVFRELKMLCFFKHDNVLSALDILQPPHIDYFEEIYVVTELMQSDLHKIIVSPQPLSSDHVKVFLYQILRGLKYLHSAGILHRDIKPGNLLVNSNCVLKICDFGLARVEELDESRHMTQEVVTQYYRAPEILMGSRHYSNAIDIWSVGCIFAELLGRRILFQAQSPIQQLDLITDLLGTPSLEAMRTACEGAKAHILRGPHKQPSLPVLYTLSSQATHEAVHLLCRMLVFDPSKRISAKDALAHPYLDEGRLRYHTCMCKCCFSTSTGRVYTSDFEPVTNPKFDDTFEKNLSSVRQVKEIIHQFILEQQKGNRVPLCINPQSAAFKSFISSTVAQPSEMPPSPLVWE

HPK1/MAP4K1 = HPK1/MAP4K1 (Homo sapiens (Human), UniProt Q92918); assay: Kinome-wide profiling; type: biochemical; conditions: read-out: % Residual Activity (mean)
HPK1/MAP4K1, sequence (Q92918 whole entry): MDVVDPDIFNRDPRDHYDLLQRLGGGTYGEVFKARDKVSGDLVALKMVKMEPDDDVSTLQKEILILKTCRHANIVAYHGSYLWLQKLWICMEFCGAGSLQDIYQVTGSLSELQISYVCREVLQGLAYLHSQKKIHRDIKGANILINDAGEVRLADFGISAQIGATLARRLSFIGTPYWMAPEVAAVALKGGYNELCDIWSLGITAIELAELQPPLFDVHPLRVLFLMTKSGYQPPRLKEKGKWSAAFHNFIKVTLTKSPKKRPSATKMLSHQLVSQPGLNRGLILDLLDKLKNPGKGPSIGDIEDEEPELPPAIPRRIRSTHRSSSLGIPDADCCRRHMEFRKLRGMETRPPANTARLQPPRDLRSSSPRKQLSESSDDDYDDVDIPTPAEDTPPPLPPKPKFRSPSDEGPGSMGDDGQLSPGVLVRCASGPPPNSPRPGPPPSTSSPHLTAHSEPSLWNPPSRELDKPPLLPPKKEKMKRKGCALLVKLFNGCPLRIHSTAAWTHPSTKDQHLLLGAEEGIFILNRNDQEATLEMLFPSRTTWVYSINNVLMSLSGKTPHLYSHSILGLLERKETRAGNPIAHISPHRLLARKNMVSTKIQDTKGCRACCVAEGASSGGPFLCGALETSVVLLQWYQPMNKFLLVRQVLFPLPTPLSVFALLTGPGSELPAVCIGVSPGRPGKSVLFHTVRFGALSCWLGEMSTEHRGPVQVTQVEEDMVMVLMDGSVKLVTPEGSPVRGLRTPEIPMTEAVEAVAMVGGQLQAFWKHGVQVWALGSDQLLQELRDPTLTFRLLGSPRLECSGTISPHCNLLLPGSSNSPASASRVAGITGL

PKD2/PRKD2 = PKD2/PRKD2 (Homo sapiens (Human), UniProt Q9BZL6); assay: Kinome-wide profiling; type: biochemical; conditions: read-out: % Residual Activity (mean)
LCK2/ICK = LCK2/ICK (Homo sapiens (Human), UniProt Q9UPZ9); assay: Kinome-wide profiling; type: biochemical; conditions: read-out: % Residual Activity (mean)
LCK2/ICK, sequence (Q9UPZ9 whole entry): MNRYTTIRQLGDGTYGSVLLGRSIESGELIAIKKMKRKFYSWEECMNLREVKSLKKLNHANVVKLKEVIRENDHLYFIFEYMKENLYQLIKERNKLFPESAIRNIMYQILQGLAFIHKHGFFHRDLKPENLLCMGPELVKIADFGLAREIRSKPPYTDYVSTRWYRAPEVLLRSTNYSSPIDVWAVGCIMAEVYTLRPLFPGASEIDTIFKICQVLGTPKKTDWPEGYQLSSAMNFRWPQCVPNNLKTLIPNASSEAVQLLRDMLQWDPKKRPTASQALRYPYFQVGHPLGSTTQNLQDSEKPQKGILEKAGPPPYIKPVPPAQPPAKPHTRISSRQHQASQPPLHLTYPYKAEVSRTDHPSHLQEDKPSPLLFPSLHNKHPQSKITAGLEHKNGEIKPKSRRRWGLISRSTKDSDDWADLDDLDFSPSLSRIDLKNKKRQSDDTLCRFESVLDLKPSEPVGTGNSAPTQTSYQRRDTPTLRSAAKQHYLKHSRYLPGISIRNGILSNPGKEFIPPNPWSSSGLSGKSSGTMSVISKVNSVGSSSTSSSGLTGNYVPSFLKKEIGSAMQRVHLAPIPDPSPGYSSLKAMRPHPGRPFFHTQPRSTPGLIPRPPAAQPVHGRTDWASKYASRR

MSSK1/STK23 = MSSK1/STK23 (Homo sapiens (Human), UniProt Q9UPE1); assay: Kinome-wide profiling; type: biochemical; conditions: read-out: % Residual Activity (mean)
PKG1b = PKG1b (Homo sapiens (Human), UniProt Q13976); assay: Kinome-wide profiling; type: biochemical; conditions: read-out: % Residual Activity (mean)
SRPK1 = SRPK1 (Homo sapiens (Human), UniProt Q96SB4); assay: Kinome-wide profiling; type: biochemical; conditions: read-out: % Residual Activity (mean)
CLK4 = CLK4 (Homo sapiens (Human), UniProt Q9HAZ1); assay: Kinome-wide profiling; type: biochemical; conditions: read-out: % Residual Activity (mean)
CLK2 = CLK2 (Homo sapiens (Human), UniProt P49760); assay: Kinome-wide profiling; type: biochemical; conditions: read-out: % Residual Activity (mean)
CLK2, sequence (P49760 whole entry): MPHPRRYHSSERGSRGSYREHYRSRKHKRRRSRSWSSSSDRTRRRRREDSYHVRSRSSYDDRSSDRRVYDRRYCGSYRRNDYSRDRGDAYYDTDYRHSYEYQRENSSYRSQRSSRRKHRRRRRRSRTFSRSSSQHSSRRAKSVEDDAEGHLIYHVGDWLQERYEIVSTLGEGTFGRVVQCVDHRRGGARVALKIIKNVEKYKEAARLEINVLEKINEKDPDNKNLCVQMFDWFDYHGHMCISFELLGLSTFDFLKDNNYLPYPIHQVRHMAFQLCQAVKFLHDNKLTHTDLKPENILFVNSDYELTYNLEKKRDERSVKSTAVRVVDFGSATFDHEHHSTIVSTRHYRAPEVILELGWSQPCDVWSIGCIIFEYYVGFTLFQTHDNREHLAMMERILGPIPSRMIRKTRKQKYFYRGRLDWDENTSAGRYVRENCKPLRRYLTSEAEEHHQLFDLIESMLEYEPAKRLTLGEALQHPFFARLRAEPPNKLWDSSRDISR

STK33 = STK33 (Homo sapiens (Human), UniProt Q9BYT3); assay: Kinome-wide profiling; type: biochemical; conditions: read-out: % Residual Activity (mean)
KDR/VEGFR2 = KDR/VEGFR2 (Homo sapiens (Human), UniProt P35968); assay: Kinome-wide profiling; type: biochemical; conditions: read-out: % Residual Activity (mean)
KDR/VEGFR2, sequence (P35968 20-1356): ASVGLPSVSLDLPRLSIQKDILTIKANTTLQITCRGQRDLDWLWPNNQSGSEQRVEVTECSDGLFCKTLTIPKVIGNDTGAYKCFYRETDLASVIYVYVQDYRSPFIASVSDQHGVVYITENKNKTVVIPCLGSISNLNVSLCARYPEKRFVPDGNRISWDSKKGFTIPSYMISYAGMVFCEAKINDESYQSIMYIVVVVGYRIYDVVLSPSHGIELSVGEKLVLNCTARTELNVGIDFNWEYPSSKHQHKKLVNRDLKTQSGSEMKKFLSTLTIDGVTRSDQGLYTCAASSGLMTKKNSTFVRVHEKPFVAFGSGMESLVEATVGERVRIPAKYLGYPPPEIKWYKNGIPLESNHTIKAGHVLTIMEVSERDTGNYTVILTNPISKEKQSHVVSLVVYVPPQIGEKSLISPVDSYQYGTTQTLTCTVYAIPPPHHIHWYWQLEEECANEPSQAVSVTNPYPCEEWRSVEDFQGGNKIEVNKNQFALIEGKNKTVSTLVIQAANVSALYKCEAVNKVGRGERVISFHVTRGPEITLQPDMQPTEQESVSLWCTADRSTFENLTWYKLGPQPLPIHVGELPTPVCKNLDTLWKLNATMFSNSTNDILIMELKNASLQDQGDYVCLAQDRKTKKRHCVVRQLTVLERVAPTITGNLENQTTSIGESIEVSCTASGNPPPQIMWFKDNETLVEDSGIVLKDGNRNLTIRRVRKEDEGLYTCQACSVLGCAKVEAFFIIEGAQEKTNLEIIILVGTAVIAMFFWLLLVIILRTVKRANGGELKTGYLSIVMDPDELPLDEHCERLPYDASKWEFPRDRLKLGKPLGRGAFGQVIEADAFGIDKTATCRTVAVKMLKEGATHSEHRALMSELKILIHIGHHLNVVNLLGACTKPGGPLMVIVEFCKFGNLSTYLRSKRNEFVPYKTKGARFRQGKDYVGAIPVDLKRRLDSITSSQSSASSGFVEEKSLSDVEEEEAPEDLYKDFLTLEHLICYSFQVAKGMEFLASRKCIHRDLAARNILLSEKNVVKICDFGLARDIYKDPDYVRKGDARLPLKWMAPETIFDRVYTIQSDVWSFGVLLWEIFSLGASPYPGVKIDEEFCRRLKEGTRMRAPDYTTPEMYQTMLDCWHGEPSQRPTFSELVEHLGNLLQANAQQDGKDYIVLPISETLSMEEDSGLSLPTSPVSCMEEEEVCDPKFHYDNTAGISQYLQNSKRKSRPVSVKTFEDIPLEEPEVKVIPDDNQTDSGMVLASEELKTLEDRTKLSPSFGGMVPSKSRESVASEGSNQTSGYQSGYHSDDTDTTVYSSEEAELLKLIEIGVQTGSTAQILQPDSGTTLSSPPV

MEKK3 = MEKK3 (Homo sapiens (Human), UniProt Q99759); assay: Kinome-wide profiling; type: biochemical; conditions: read-out: % Residual Activity (mean)
STK32C/YANK3 = STK32C/YANK3 (Homo sapiens (Human), UniProt Q86UX6); assay: Kinome-wide profiling; type: biochemical; conditions: read-out: % Residual Activity (mean)
CDK6/cyclin D3 = CDK6/cyclin D3 (Homo sapiens (Human), UniProt Q00534); assay: Kinome-wide profiling; type: biochemical; conditions: read-out: % Residual Activity (mean)
STK16 = STK16 (Homo sapiens (Human), UniProt O75716); assay: Kinome-wide profiling; type: biochemical; conditions: read-out: % Residual Activity (mean)
PKA = PKA (Homo sapiens (Human), UniProt P17612); assay: Kinome-wide profiling; type: biochemical; conditions: read-out: % Residual Activity (mean)
PKN1/PRK1 = PKN1/PRK1 (Homo sapiens (Human), UniProt Q16512); assay: Kinome-wide profiling; type: biochemical; conditions: read-out: % Residual Activity (mean)
HIPK4 = HIPK4 (Homo sapiens (Human), UniProt Q8NE63); assay: Kinome-wide profiling; type: biochemical; conditions: read-out: % Residual Activity (mean)
MARK4 = MARK4 (Homo sapiens (Human), UniProt Q96L34); assay: Kinome-wide profiling; type: biochemical; conditions: read-out: % Residual Activity (mean)
MARK1 = MARK1 (Homo sapiens (Human), UniProt Q9P0L2); assay: Kinome-wide profiling; type: biochemical; conditions: read-out: % Residual Activity (mean)
GRK1 = GRK1 (Homo sapiens (Human), UniProt Q15835); assay: Kinome-wide profiling; type: biochemical; conditions: read-out: % Residual Activity (mean)
EPHB2 = EPHB2 (Homo sapiens (Human), UniProt P29323); assay: Kinome-wide profiling; type: biochemical; conditions: read-out: % Residual Activity (mean)
EPHB2, sequence (P29323 19-1055): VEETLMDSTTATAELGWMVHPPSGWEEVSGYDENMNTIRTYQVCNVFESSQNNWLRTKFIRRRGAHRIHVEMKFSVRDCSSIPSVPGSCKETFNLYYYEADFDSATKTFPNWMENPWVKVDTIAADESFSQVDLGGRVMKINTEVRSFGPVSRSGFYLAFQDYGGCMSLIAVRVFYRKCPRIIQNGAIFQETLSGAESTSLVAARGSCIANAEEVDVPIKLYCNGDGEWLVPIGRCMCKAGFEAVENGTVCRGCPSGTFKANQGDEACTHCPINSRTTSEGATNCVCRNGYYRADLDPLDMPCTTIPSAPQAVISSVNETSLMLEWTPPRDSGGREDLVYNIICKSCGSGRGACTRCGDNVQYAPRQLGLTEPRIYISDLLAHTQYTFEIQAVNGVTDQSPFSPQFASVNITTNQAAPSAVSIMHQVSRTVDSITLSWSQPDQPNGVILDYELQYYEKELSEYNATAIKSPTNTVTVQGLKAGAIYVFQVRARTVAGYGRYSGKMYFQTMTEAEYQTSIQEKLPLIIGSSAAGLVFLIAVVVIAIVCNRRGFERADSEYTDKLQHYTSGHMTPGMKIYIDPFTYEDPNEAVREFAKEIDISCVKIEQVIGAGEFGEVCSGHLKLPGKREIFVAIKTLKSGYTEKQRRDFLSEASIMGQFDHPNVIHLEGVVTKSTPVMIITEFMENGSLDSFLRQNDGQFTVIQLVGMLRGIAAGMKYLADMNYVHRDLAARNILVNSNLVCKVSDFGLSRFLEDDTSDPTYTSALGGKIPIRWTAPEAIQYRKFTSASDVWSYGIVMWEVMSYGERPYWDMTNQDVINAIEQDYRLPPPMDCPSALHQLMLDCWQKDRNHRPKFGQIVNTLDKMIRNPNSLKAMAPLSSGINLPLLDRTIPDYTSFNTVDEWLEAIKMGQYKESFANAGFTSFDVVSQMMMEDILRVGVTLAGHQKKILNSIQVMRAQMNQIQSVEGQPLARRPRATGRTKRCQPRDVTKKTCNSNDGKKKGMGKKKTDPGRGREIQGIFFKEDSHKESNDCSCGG

CCn1cnc2c(NCc3ccc(-c4ccccn4)nc3)nc(-c3ccc(N)nc3)nc21 [Example 53, N-([2,2′-bipyridin]-5-ylmethyl)-2-(6-aminopyridin-3-yl)-9-ethyl-9H-purin-6-amine]
remaining activity at 10 µM (p70S6K/RPS6KB1): 92.1% | remaining activity at 10 µM (EPHB3): 66% | remaining activity at 10 µM (CDK5/p35): 0.67% | activity at 10 µM (CYP2C9): 57.9% | activity at 10 µM (CYP2C19): 68.1% | activity at 10 µM (CYP2D6): 81% | activity at 10 µM (CYP3A4): 43% | remaining activity at 10 µM (CK1g2): 27% | remaining activity at 10 µM (CLK1): 13.7% | remaining activity at 10 µM (MST2/STK3): 53.5% | anti-proliferative activity of trastuzumab on co-treatment (SK-Br3 and HCC1954 cells): slightly enhanced | anti-proliferative activity of trastuzumab on co-treatment (SK-Br3 and HCC1954 cells; listed as Compound 53): slightly increased | remaining activity at 10 µM (DYRK4): 89.3% | remaining activity at 10 µM (NLK): 24.8% | remaining activity at 10 µM (HPK1/MAP4K1): 30.2% | remaining activity at 10 µM (PKD2/PRKD2): 72.3% | remaining activity at 10 µM (LCK2/ICK): 39.6% | remaining activity at 10 µM (MSSK1/STK23): 82.8% | remaining activity at 10 µM (PKG1b): 97.6% | remaining activity at 10 µM (SRPK1): 54.3% | remaining activity at 10 µM (CLK4): 28.7% | remaining activity at 10 µM (CLK2): 11.7% | remaining activity at 10 µM (STK33): 33.5% | remaining activity at 10 µM (KDR/VEGFR2): 88.6% | remaining activity at 10 µM (MEKK3): 94% | remaining activity at 10 µM (STK32C/YANK3): 86.7% | remaining activity at 10 µM (CDK6/cyclin D3): 12.9% | remaining activity at 10 µM (STK16): 35.9% | remaining activity at 10 µM (PKA): 93.1% | remaining activity at 10 µM (PKN1/PRK1): 85.4% | remaining activity at 10 µM (HIPK4): 43.9% | remaining activity at 10 µM (MARK4): 66.9% | remaining activity at 10 µM (MARK1): 81.5% | remaining activity at 10 µM (GRK1): 76.3% | remaining activity at 10 µM (EPHB2): 2.52%
